Measurements from US20220362262A1, “METHODS AND COMPOSITIONS FOR TISSUE REGENERATION” (Institute of Zoology, Chinese Academy of Sciences, priority 2019, published 2022).
Entries after “also recorded” stand apart in the source; their conditions may differ.

Experiments:
cryoinjured TA muscle = assay: Muscle regeneration after cryoinjury: regenerative index, myogenic proteins, myofiber diameter, grip strength after bolus injection; format: in vivo, mice; conditions: for regenerative index (fraction of nuclei in embryonic MHC-positive myofibers): single bolus, combinations: prostaglandin at day 0, rosiglitazone at day 1, relative to DMSO vehicle
Description: (§1) Some tissues were flash frozen for cryosectioning.

[1] = tested on: muscle stem cells and myoblasts in gastrocnemius, quadriceps and TA muscle; assay: Stem cell and myoblast activation in skeletal muscles without injury, immunofluorescence 2 days after single bolus; format: in vivo, mice; conditions: for fraction of proliferative muscle stem cells (Pax7-positive Ki67-positive cells) / total pool of muscle stem cells (Pax7-positive cells) / total pool of proliferative cells (Ki67-positive cells): without injury
Description: as §1

[2] = tested on: Ki67-positive proliferative progenitor cells in liver, heart, skin, hair follicles; assay: Ki67+ progenitor cells in non-skeletal muscle tissues without injury, 2 days after intra-peritoneal treprostinil; format: in vivo, mice
Description: as §1

[3] = tested on: fibrosis in TA muscle, liver, skin and heart of 2-year old mice; assay: Aging-induced fibrosis and fibrotic precursors in 2-year old mice after daily injection; format: in vivo; conditions: for relative changes in the % fibrotic area (Masson trichrome staining) / relative changes in the percentage fraction of fibrotic precursors (PGDFRA-positive and Ki67-positive): 7 days post-injection, 2-year old mice
Description: as §1

[4] = tested on: pure primary human myoblasts; assay: Pure primary human myoblasts treated with PGI2-related drugs (Western blot, qRT-PCR); format: cell-based; conditions: pure primary human myoblasts, relative to DMSO
[5] = gastrocnemius muscle, 2 days after intramuscular single bolus, PPARD drugs
[6] = TA muscle, 2 days after intramuscular single bolus, with or without HGF
[7] = gastrocnemius muscle, 2 days after intra-peritoneal single bolus
[8] = gastrocnemius muscle, 2 days after intraperitoneal single bolus, with or without fenofibrate or WY-14643
[9] = quadriceps muscles, 2 days after intra-peritoneal single bolus

O=C(NCCS(=O)(=O)c1ccc(C(F)(F)F)cn1)c1ccc(Cl)cc1 [GSK3787]
regenerative index (fraction of nuclei in embryonic MHC-positive myofibers) (cryoinjured TA muscle; TA muscle 6.5 days post-injury): not
percentage fraction of proliferative muscle stem cells (Pax7-positive Ki67-positive cells) [1, 5]: no effect
percentage fraction of proliferative myoblasts (MyoD-positive Ki67-positive cells) [1, 5]: slightly increased

HGF: hepatocyte growth factor
percentage fraction of proliferative muscle stem cells (Pax7-positive Ki67-positive cells) [1, 6]: significantly increased; also recorded: could increase
percentage fraction of proliferative myoblasts (MyoD-positive Ki67-positive cells) [1, 6]: slightly increased; also recorded: could increase

CCCCC[C@H](O)CC[C@@H]1[C@H]2Cc3cccc(OCC(=O)O)c3C[C@H]2C[C@H]1O [treprostinil]
grip strength (cryoinjured TA muscle; 14 days post-injury, 6-week old mice, prostaglandin at 0 h, rosiglitazone at 24 h post-injury): partially restore grip strength
Pax7, MyoD, MyoG and Myh3 protein expression (Western blot densitometry) (cryoinjured TA muscle; TA muscle 6 days post-cryoinjury, treprostinil at day 0, rosiglitazone at day 1 in the combination): significantly increase; also recorded: could also increase
hypertrophic growth (myofiber cross-sectional Feret diameters) (cryoinjured TA muscle; TA muscle 6.5 days post-injury, prostaglandin at day 0, rosiglitazone at day 1): increase hypertrophic growth
regenerative index (fraction of nuclei in embryonic MHC-positive myofibers) (cryoinjured TA muscle; TA muscle 6.5 days post-injury): significantly increase muscle regeneration
percentage fraction of proliferative muscle stem cells (Pax7-positive Ki67-positive cells) [1, 6]: significantly increased; also recorded: could increase
percentage fraction of proliferative myoblasts (MyoD-positive Ki67-positive cells) [1, 6]: slightly increased; also recorded: could increase
fraction of proliferative muscle stem cells (Pax7-positive Ki67-positive cells) ([1]; TA muscle, 2 days after intramuscular single bolus): significantly increased
fraction of proliferative muscle stem cells (Pax7-positive Ki67-positive cells) [1, 7]: significantly increased
total pool of muscle stem cells (Pax7-positive cells) [1, 7]: significantly increased
total pool of proliferative cells (Ki67-positive cells) [1, 7]: significantly increased
percentage fraction of proliferative muscle stem cells (Pax7-positive Ki67-positive cells) [1, 5]: significantly increased
percentage fraction of proliferative myoblasts (MyoD-positive Ki67-positive cells) [1, 5]: slightly increased
percentage fraction of myoblasts (MyoD-positive cells) [1, 8]: significantly increased
percentage fraction of proliferative myoblasts (MyoD-positive Ki67-positive cells) [1, 8]: significantly increased
fraction of proliferative muscle stem cells (Pax7-positive Ki67-positive cells) [1, 9]: significantly increased
total pool of muscle stem cells (Pax7-positive cells) [1, 9]: significantly increased
total pool of proliferative cells (Ki67-positive cells) [1, 9]: significantly increased
total pool of proliferative progenitor cells (Ki67-positive cells) ([2]; endoderm-derived liver tissue): significantly increased
total pool of proliferative progenitor cells (Ki67-positive cells) ([2]; endoderm-derived liver tissue, listed as Treprostinil): increase the total pool of Ki67+ progenitor cells
total pool of proliferative progenitor cells (Ki67-positive cells) ([2]; mesoderm-derived heart and cardiac muscle tissue): significantly increased; also recorded: increase the total pool of Ki67+ progenitor cells
total pool of proliferative progenitor cells (Ki67-positive cells) ([2]; neuroectoderm-derived skin tissue): significantly increased; also recorded: increase
total pool of proliferative progenitor cells (Ki67-positive cells) ([2]; skin tissue's telogen hair follicles): significantly increased; also recorded: increase
relative changes in the % fibrotic area (Masson trichrome staining) ([3]; TA muscle, daily injection): partially reverse the aged muscle fibrosis; also recorded: significant reversal of aging-induced fibrosis
relative changes in the percentage fraction of fibrotic precursors (PGDFRA-positive and Ki67-positive) ([3]; TA muscle, daily injection): partially suppress the aged muscle fibrotic precursors
relative changes in the % fibrotic area (Masson trichrome staining) ([3]; heart tissue, daily injection): partially reverse the aged cardiac fibrosis
relative changes in the percentage fraction of fibrotic precursors (PGDFRA-positive and Ki67-positive) ([3]; heart tissue, daily injection): partially suppress the aged cardiac fibrotic precursors
relative changes in the % fibrotic area (Masson trichrome staining) ([3]; liver tissue, daily injection): partially reverse the aged liver fibrosis
relative changes in the percentage fraction of fibrotic precursors (PGDFRA-positive and Ki67-positive) ([3]; liver tissue, daily injection): partially suppress the aged liver fibrotic precursors
PDGFRA+ Ki67+ fibrotic precursor numbers in multiple non-skeletal muscle tissues ([3]; liver, skin and heart, 2-year-old mice): suppress
aging-induced fibrosis (fibrotic area) in multiple non-skeletal muscle tissues ([3]; liver, skin and heart, daily injection, 2-year-old mice): significant reversal of aging-induced fibrosis
relative changes in the % fibrotic area (Masson trichrome staining) ([3]; skin tissue, daily injection): partially reverse the aged skin fibrosis
relative changes in the percentage fraction of fibrotic precursors (PGDFRA-positive and Ki67-positive) ([3]; skin tissue, daily injection): partially suppress the aged skin fibrotic precursors
H3K9ac and MyoD protein (Western blot) [4]: followed the same pattern of regulation as PPARG
PPARG protein levels (Western blot) [4]: stabilize and/or upregulate

CCCCC[C@@H](/C=C/[C@H]1[C@H](CCCCCCC(=O)O)[C@H]2C[C@@H]1OO2)OO [PGG1]
regenerative index (fraction of nuclei in embryonic MHC-positive myofibers) (cryoinjured TA muscle; TA muscle 6.5 days post-injury): no significant effect; also recorded: did not cause significant changes

CC(C)OC(=O)C(C)(C)Oc1ccc(C(=O)c2ccc(Cl)cc2)cc1 [fenofibrate]
percentage fraction of myoblasts (MyoD-positive cells) [1, 8]: no effect
percentage fraction of proliferative myoblasts (MyoD-positive Ki67-positive cells) [1, 8]: no effect

CCCCC[C@H](O)/C=C/[C@@H]1[C@@H](CCCCCCC(=O)O)[C@@H](O)C[C@H]1O [PGF1a]
regenerative index (fraction of nuclei in embryonic MHC-positive myofibers) (cryoinjured TA muscle; TA muscle 6.5 days post-injury): significantly decrease muscle regeneration; also recorded: slightly decreased regeneration

Cc1cc(SCc2sc(-c3ccc(C(F)(F)F)c(F)c3)nc2C)ccc1OCC(=O)O [GW0742]
regenerative index (fraction of nuclei in embryonic MHC-positive myofibers) (cryoinjured TA muscle; TA muscle 6.5 days post-injury): significantly decrease muscle regeneration
percentage fraction of proliferative muscle stem cells (Pax7-positive Ki67-positive cells) [1, 5]: surprisingly decreased
percentage fraction of proliferative myoblasts (MyoD-positive Ki67-positive cells) [1, 5]: no effect

CCCCC[C@H](O)/C=C/[C@H]1C(=O)C[C@H](O)[C@@H]1C/C=C\CCCC(=O)O [PGD2, prostaglandin D2]
regenerative index (fraction of nuclei in embryonic MHC-positive myofibers) (cryoinjured TA muscle; TA muscle 6.5 days post-injury): slightly but significantly increase muscle regeneration; also recorded: slightly increased regeneration
